This passage reports IC50 results from patent publication US20250042889A1, “3CLPRO PROTEASE INHIBITOR” (SHANGHAI QILU PHARMACEUTICAL RESEARCH AND DEVELOPMENT …, priority 2021, published 2025).

In the test the target is SARS-COV-2 3CLpro/Mpro protease (Severe acute respiratory syndrome coronavirus 2 (2019-nCoV) (SARS-CoV-2), UniProt P0DTD1). The test is described as follows: Inhibitory effect on SARS-COV-2 3CLpro/Mpro protease by fluorescence resonance energy transfer. As to conditions: activity intervals A-D, read-out: IC50 (nM), Inhibition on SARS-CoV-2 3CLpro/Mpro protease. It counts as biochemical.
With `Cc1cc(C(=O)N2CCC[C@@H](Nc3c(C(=O)N4CC(O)CC(Cl)C4)cc(Br)cc3[N+](=O)[O-])C2)cc(=O)[nH]1` (stereo partly shown) [Example 159], the IC50 was below 10 nM.
The same measure for `O=C(c1cc(Br)cc([N+](=O)[O-])c1N[C@@H]1CCCN(C(=O)c2cc(=O)[nH]c3ccccc23)C1)N1CCC(N2CCOCC2)CC1` [Example 134]: 10 to 50 nM; for `CNc1cncc(C(=O)N2C[C@H](Nc3c(C(=O)N4C[C@@H](C)N[C@@H](C)C4)cc(Br)cc3[N+](=O)[O-])C3(CC3)C2)c1` [Example 21]: 10 to 50 nM; for `CC1(C)C2CN(C(=O)c3cc(Br)cc([N+](=O)[O-])c3N[C@@H]3CCCN(C(=O)c4cncc5ccccc45)C3)CC21` (stereo partly shown) [Example 7]: 10 to 50 nM.
For the molecule `CNc1cncc(C(=O)N2CCC[C@@H](Nc3c(C(=O)N4CCOCC4)cc(Br)cc3[N+](=O)[O-])C2)c1` [Example 200], the IC50 was in the range of 10 to 50 nM.
For `COCCN1CCN(C(=O)c2cc(Br)cc([N+](=O)[O-])c2N[C@@H]2COCC[C@@H]2NC(=O)c2cncc3cc(Cl)ccc23)CC1` [Example 215], the IC50 lay within 10 to 50 nM.
The same measure for `CNc1cncc(C(=O)N2CCC[C@@H](Nc3c(C(=O)N4CCOC5(CC5)C4)cc(Br)cc3[N+](=O)[O-])C2)c1` [Example 351]: 10 to 50 nM; for `CNc1cncc(C(=O)N2CCC[C@@H](Nc3c(C(=O)N4CCN(C(=O)C(F)(F)F)CC4)cc(Br)cc3[N+](=O)[O-])C2)c1` [Example 23, (R)-1-(4-(5-bromo-2-((1-(5-(methylamino)nicotinoyl)piperidin-3-yl)amino)-3-nitrobenzoyl)piperazin-1-yl)-2,2,2-trifluoroethan-1-one]: 10 to 50 nM.
In the case of `CNc1cncc(C(=O)N2C[C@H](Nc3c(C(=O)N4C[C@@H](C)O[C@@H](C)C4)cc(Br)cc3[N+](=O)[O-])C[C@H]2C(=O)N2CCNC(=O)C2)c1` [Example 364], the IC50 was in the range of 50 to 100 nM.
The same measure for `CNc1cncc(C(=O)N2CCC[C@@H](Nc3c(C(=O)N4CC=CCC4)cc(Br)cc3[N+](=O)[O-])C2)c1` [Example 336, (R)-(5-Bromo-2-((1-(5-(methylamino)nicotinoyl)piperidin-3-yl)amino)-3-nitrophenyl)(3,6-dihydropyridin-1 (2H)-yl) methanone]: 10 to 50 nM; for `Cc1cncc(C(=O)N2CCC[C@@H](Nc3c(C(=O)N4CCCCC4)cc(Br)cc3[N+](=O)[O-])C2)c1` [Example 43]: 10 to 50 nM.
The same measure for `O=C(c1cncc(Br)c1)N1CC[C@@H](Nc2c(C(=O)N3CCCCC3)cc(Br)cc2C(F)(F)F)C1` [Example 68]: 50 to 100 nM; for `O=C(c1cc(Br)cc([N+](=O)[O-])c1N[C@@H]1CCCN(C(=O)c2cncc3ccccc23)C1)N1CC2CC2C1` (stereo partly drawn) [Example 15, ((3R)-3-((2-(3-azabicyclo[3.1.0]hexan-3-carbonyl)-4-bromo-6-nitrophenyl)amino)piperidin-1-yl)(isoquinolin-4-yl)methanone]: 10 to 50 nM; for `CNc1cncc(C(=O)N2CCC[C@@H](Nc3c(C(=O)N4C[C@H](C)N(CCOC)[C@@H](C)C4)cc(Br)cc3[N+](=O)[O-])C2)c1` [Example 242]: 10 to 50 nM.
The same measure for `CNc1cncc(C(=O)N[C@H]2CCOC[C@H]2Nc2c(C(=O)N3CCC[C@@H](C)C3)cc(Br)cc2[N+](=O)[O-])c1` [Example 226]: 10 to 50 nM.
As to `O=C(c1cc(Br)cnc1F)N1CCC[C@@H](Nc2c(C(=O)N3CCC(F)(F)CC3)cc(Br)cc2[N+](=O)[O-])C1` [Example 106], the IC50 was in the range of 10 to 50 nM.
On to `C[C@H]1CN(C(=O)c2cc(Br)cc([N+](=O)[O-])c2N[C@@H]2CCCN(C(=O)c3cc(=O)[nH]c4ccccc34)C2)CCO1` [Example 130], for which the IC50 was 10 to 50 nM.
The same measure for `CO[C@H]1CN(C(=O)c2cncc3[nH]c(C)nc23)C[C@@H]1Nc1c(C(=O)N2C[C@@H](C)O[C@@H](C)C2)cc(Br)cc1[N+](=O)[O-]` [Example 449, (5-Bromo-2-(((3S,4S)-4-methoxy-1-(2-methyl-3H-imidazol[4,5-c]pyridin-7-carbonyl)pyrrolidin-3-yl)amino)-3-nitrophenyl)((2S,6R)-2,6-dimethylmorpholinyl)methanone]: 50 to 100 nM; for `CNc1cncc(C(=O)N2CCC[C@@H](Nc3c(C(=O)N4CCC5(CCCN5)CC4)cc(Br)cc3[N+](=O)[O-])C2)c1` [Example 280]: 10 to 50 nM.
In the case of `O=C(N[C@H]1COCC[C@H]1Nc1c(C(=O)N2CCCCC2)cc(Br)cc1[N+](=O)[O-])c1cncc2cc(Cl)ccc12` [Example 193], the IC50 fell in the range of 10 to 50 nM.
`CNc1cncc(C(=O)N2C[C@H](Nc3c(C(=O)N4C[C@@H](C)O[C@@H](C)C4)cc(Br)cc3[N+](=O)[O-])[C@@H](OCc3ccc(F)cn3)C2)c1` [Example 459]: the IC50 was 10 to 50 nM.
On to `CO[C@H]1CN(C(=O)c2cncc3[nH]cnc23)C[C@@H]1Nc1c(C(=O)N2C[C@@H](C)O[C@@H](C)C2)cc(Br)cc1[N+](=O)[O-]` [Example 408], for which the IC50 is 10 to 50 nM.
For `CNc1cncc(C(=O)N2CCC[C@@H](Nc3c(C(=O)N4CCC(F)(F)CC4)cc(Br)cc3[N+](=O)[O-])C2)c1` [Example 279], the IC50 lay within 10 to 50 nM.
In the case of `CNc1cncc(C(=O)N2C[C@H](Nc3c(C(=O)N4C[C@@H](C)O[C@@H](C)C4)cc(Br)cc3[N+](=O)[O-])C[C@H]2C(=O)Nc2nn(C)cc2Br)c1` [Example 383, (2S,4R)—N-(4-bromo-1-methyl-1H-pyrazol-3-yl)-4-((4-bromo-2-((2R,6S)-2,6-dimethylmorpholin-4-carbonyl)-6-nitrophenyl)amino)-1-(5-(methylamino)nicotinoyl) pyrrolidin-2-formamide], the IC50 was in the range of 10 to 50 nM.
With `C#C[C@@H]1C[C@@H](Nc2c(C(=O)N3C[C@@H](C)O[C@@H](C)C3)cc(Br)cc2[N+](=O)[O-])CN1C(=O)c1cncc(NC)c1` [Example 373], the IC50 lay within 50 to 100 nM.
The same measure for `CN1CCN(C(=O)c2cc(Br)cc([N+](=O)[O-])c2N[C@@H]2CCCC[C@@H]2NC(=O)c2cncc3cc(Cl)ccc23)CC1` [Example 123]: below 10 nM.
For the molecule `CNc1cncc(C(=O)N2CCC[C@@H](Nc3c(C(=O)N4CCC(C)(O)CC4)cc(Br)cc3[N+](=O)[O-])C2)c1` [Example 241], the IC50 is 10 to 50 nM.
Turning to `C[C@@H]1CN(C(=O)c2cc(Br)cc([N+](=O)[O-])c2NC2CN(C(=O)c3cncc(I)c3)CC2(F)F)C[C@H](C)O1` (stereo partly shown) [Example 164], the IC50 was in the range of 10 to 50 nM.
The same measure for `Cc1cc(C(=O)N2CCC[C@@H](Nc3c(C(=O)N4CCC(F)(F)CC4)cc(Br)cc3[N+](=O)[O-])C2)cc(=O)[nH]1` [Example 108]: 10 to 50 nM; for `CNc1cncc(C(=O)N2CCC[C@@H](Nc3c(C(=O)N4CCC(C5CCOCC5)CC4)cc(Br)cc3[N+](=O)[O-])C2)c1` [Example 317]: 10 to 50 nM; for `O=C(c1cc(Br)cc(C(F)(F)F)c1N[C@@H]1CCN(C(=O)c2cncc3ccccc23)C1)N1CCCCC1` [Example 48]: 10 to 50 nM.
The same measure for `Cc1cc(C(=O)N2C[C@H](Nc3c(C(=O)NCc4ccc(Cl)cc4)cc(Br)cc3[N+](=O)[O-])C3(CC3)C2)cc(=O)[nH]1` [Example 297]: 10 to 50 nM.
The same measure for `COCCN1CCN(C(=O)c2cc(Br)cc([N+](=O)[O-])c2N[C@@H]2COCC[C@@H]2NC(=O)c2cncc3ccccc23)CC1` [Example 218]: 10 to 50 nM.
In the case of `CNc1cncc(C(=O)N2C[C@H](Nc3c(C(=O)N4CCCCC4)cc(Br)cc3[N+](=O)[O-])[C@H](OC)C2)c1` [Example 308], the IC50 was 10 to 50 nM.
